Assay results reported in patent US8389472B2, “Exendin-4 to treat nonalcoholic steatohepatitis and nonalcoholic fatty liver disease” (Amylin Pharmaceuticals, LLC, priority 2005, dated 2013).
No end group written: not given here.

Assays:
[1] = test system: T2DM patients; settings: head-to-head comparator trial; cited from earlier work
[2] = test system: cloned GLP-1 receptor; settings: cells transfected with the cloned GLP-1 receptor; cited from earlier work
[3] = in treated test animals; cited from earlier work
[4] = adsorption onto glass container in liquid form; assay type: physicochemical
Excerpt: However, with regard to compounds Which do have such a tendency when in liquid final, a surfactant should be used in their formulation. These formulations may then be lyophilized. Surfactants frequently cause denaturation of protein, both of hydrophobic disruption and by salt bridge separation. Relatively low concentrations of surfactant may exert a potent denaturing activity, because of the strong interactions between surfactant moieties and the reactive sites on proteins. However, judicious use of this interaction can stabilize proteins against interfacial or surface denaturation. Surfactants which could further stabilize the peptide may optionally be present in the range of about 0.001 to 0.3% (w/v) of the total formulation and include polysorbate 80 (i.e., polyoxyethylene(20) sorbitan monooleate), CHAPS® (i.e., 3-[(3-Cholamidopropyl)dimethylammonio]propanesulfonic acid), BRIJ® (e.g., Brij 35, which is (polyoxyethylene(23) lauryl ether), poloxamer, or another non-ionic surfactant.

[5] = compared to human amylin; cited from earlier work

Question: Which HbA1c reductions [1] does the source give for insulin glargine here?
Answer: Its HbA1c reductions is ~1.1%.

Question: What about the weight gain [1] of the same compound?
Answer: Its weight gain is ~1.8 kg.

Question: With exendin[9-39] as the compound, how does the “functional activity (cAMP)” value [2] read?
Answer: Its value is “antagonist”.

Question: Which amylin activity [3] does the source give for “des-^1Lys-h-amylin (CNTATCATQRLANFLVHSSNNFGAILSSTNVGSNTY; ends and bridges not checked; cysteine pairing not given here; UniProt P10997 34-70, looked up, variant K1*) [amylin agonist analog]” here?
Answer: The amylin activity was “amylin activity in vivo”.

Question: With des-^1Lys^18Arg^25,28Pro-h-amylin as the compound, how does the amylin activity [3] read?
Answer: The amylin activity was “amylin activity in vivo”.

Question: With `CC[C@H](C)[C@H](NC(=O)[C@@H]1CCCN1C(=O)CNC(=O)[C@H](Cc1ccccc1)NC(=O)[C@H](CC(N)=O)NC(=O)[C@H](CC(N)=O)NC(=O)[C@H](CO)NC(=O)[C@H](CO)NC(=O)[C@H](Cc1c[nH]cn1)NC(=O)[C@@H](NC(=O)[C@H](CC(C)C)NC(=O)[C@H](Cc1ccccc1)NC(=O)[C@H](CC(N)=O)NC(=O)[C@H](C)NC(=O)[C@H](CC(C)C)NC(=O)[C@H](CCCNC(=N)N)NC(=O)[C@H](CCC(N)=O)NC(=O)[C@@H](NC(=O)[C@H](C)NC(=O)[C@@H]1CSSC[C@H](NC(=O)[C@@H](N)CCCCN)C(=O)N[C@@H](CC(N)=O)C(=O)N[C@@H]([C@@H](C)O)C(=O)N[C@@H](C)C(=O)N[C@@H]([C@@H](C)O)C(=O)N1)[C@@H](C)O)C(C)C)C(=O)N[C@@H](CC(C)C)C(=O)N1CCC[C@H]1C(=O)N1CCC[C@H]1C(=O)N[C@H](C(=O)N[C@@H](CC(N)=O)C(=O)N[C@H](C(=O)NCC(=O)N[C@@H](CO)C(=O)N[C@@H](CC(N)=O)C(=O)N[C@H](C(=O)N[C@@H](Cc1ccc(O)cc1)C(N)=O)[C@@H](C)O)C(C)C)[C@@H](C)O` [^25,28,29Pro-h-amylin, reference compound] as the compound, how does the “tendency to adsorb onto the glass” value [4] read?
Answer: Its value is “does not have a tendency to adsorb onto the glass”.

Question: What about the amylin activity [3] of the same compound?
Answer: The amylin activity was “amylin activity in vivo”.

Question: For “^18Arg^25,28Pro-h-amylin (KCNTATCATQRLANFLVRSSNNFGPILPSTNVGSNTY) [amylin agonist analog]”, which amylin activity [3] is on record?
Answer: Its amylin activity is “amylin activity in vivo”.

Question: What about the “solubility and stability characteristics” value [5] of the same compound?
Answer: The value was “more desirable solubility and stability characteristics”.

Question: With “^25Pro^26Val^28,29Pro-h-amylin (KCNTATCATQRLANFLVHSSNNFGPVLPPTNVGSNTY) [amylin agonist analog]” as the compound, how does the “solubility and stability characteristics” value [5] read?
Answer: The value was “more desirable solubility and stability characteristics”.

Question: With “^28Pro-h-amylin (KCNTATCATQRLANFLVHSSNNFGAILPSTNVGSNTY) [amylin agonist analog]” as the compound, how does the amylin activity [3] read?
Answer: The amylin activity was “amylin activity in vivo”.
